Measurements reported in patent US20050158374A1, “Compositions and dosage forms for enhanced absorption of metformin” (priority 2003, published 2005).
Converted amounts (≈) assume the structure as drawn. Structures can show the parent of a compound that is named as a salt. Where two headings read alike, the source gives them in different places.

Columns and labels:
[1] = conductivity of complexes in aqueous solutions; conditions: aqueous solution pH≅5.8, 23° C.
[2] = in vivo colonic absorption using flushed ligated colonic model in rats; conditions: 10 mg/rat intubated into ligated colon
[3] = cited from earlier work
[4] = in vivo
[5] = for macroscopic evaluation of the G.I. tract for signs of irritation: end of oral gavage study; for time of plasma concentration maximum after treatment: rat, in vivo, po
[6] = in vivo; conditions: rat, po, 40 mg/kg
[7] = in vivo; conditions: male, Sprague-Dawley, rat, plasma, other: intracolonic bolus, ligated colon, 10 mg/rat
[8] = in vivo; conditions: Sprague-Dawley, rat, plasma, iv, 2 mg/kg
[9] = intravenous administration of metformin HCl to rats; conditions: for Metformin base plasma concentration, Average / Metformin base plasma concentration, Rat2 / Metformin base plasma concentration, Rat3 / Metformin base plasma concentration, Rat1: 2 mg/kg intravenously

Work on Metformin oleate yielded a Conductivity ([1]; metformin concentration 5 mM) of 136 μS/cm, a Conductivity ([1]; metformin concentration 10 mM) of 235 μS/cm and a Conductivity ([1]; metformin concentration 20 mM) of 405 μS/cm. The “Area Under the Curve (0-4 hrs, based on 1 mg base/rat)” value [2] was 408.3 ng · h/mL-mg.
In the case of CCCCCCCCCCCC(=O)O [Lauric (12), lauric acid], the “Solubility in Acetic acid” value ([3]; 20° C.) is given as 818 mg/mL (≈ 4080 mM), the “Solubility in Acetone” value ([3]; 20° C.) is given as 605 mg/mL (≈ 3020 mM) and the “Solubility in Acetonitrile” value ([3]; 20° C.) is given as 76 mg/mL (≈ 379 mM). The “Solubility in Benzene” value ([3]; 20° C.) was 936 mg/mL (≈ 4670 mM), the “Solubility in Chloroform” value ([3]; 20° C.) was 830 mg/mL (≈ 4140 mM) and the “Solubility in Cyclohexanne” value ([3]; 20° C.) was 680 mg/mL (≈ 3390 mM). The “Solubility in Ethanol 95%” value ([3]; 20° C.) was 912 mg/mL (≈ 4550 mM) and the “Solubility in Methanol” value ([3]; 20° C.) was 1200 mg/mL (≈ 5990 mM).
With CCCCCCCCCC(=O)O.CN(C)C(=N)N=C(N)N [Metformin caprate] the “Area Under the Curve (0-4 hrs, based on 1 mg base/rat)” value [4] was 548.0 ng · h/mL-mg.
With CCCCCCCCCCCC(=O)O.CN(C)C(=N)N=C(N)N [Metformin laurate] the “macroscopic evaluation of the G.I. tract for signs of irritation” value [5] was “No irritation”, the “time of plasma concentration maximum after treatment” value [5] was “about 1 hour” and the “Area Under the Curve (0-4 hrs, based on 1 mg base/rat)” value [4] was 674.5 ng · h/mL-mg.
In the case of CCCCCCCCCCCCCC(=O)O [myristic (14), myristic acid], the “Solubility in Acetic acid” value [3] is given as 102 mg/mL (≈ 447 mM), the “Solubility in Acetone” value [3] is given as 159 mg/mL (≈ 696 mM) and the “Solubility in Acetonitrile” value [3] is given as 18 mg/mL (≈ 78.8 mM). The “Solubility in Benzene” value [3] was 292 mg/mL (≈ 1280 mM), the “Solubility in Chloroform” value [3] was 325 mg/mL (≈ 1420 mM) and the “Solubility in Cyclohexanne” value [3] was 215 mg/mL (≈ 941 mM). For the same compound, the “Solubility in Ethanol 95%” value [3] was 189 mg/mL (≈ 828 mM) and the “Solubility in Methanol” value [3] was 173 mg/mL (≈ 758 mM).
With CN(C)C(=N)N=C(N)N [Metformin HCl, metformin hydrochloride] the “macroscopic evaluation of the G.I. tract for signs of irritation” value [5] was “No irritation”, the “time of plasma concentration maximum after treatment” value [5] was “about 1 hour” and the Cmax [6] was ~4.08 µg/mL. It also gave a concentration at 0 h [7] of 0 µg/mL, a concentration at 0 h [8] of 0 µg/mL and a concentration at 1 h [8] of 0.0355 µg/mL. For the same compound, the concentration at 2 h [8] was 0 µg/mL, the concentration at 3 h [8] was 0 µg/mL and the “Metformin base plasma concentration, Average” value ([9]; Time 0 h) was 0.0 ng/mL. For the same compound, the “Metformin base plasma concentration, Rat2” value ([9]; Time 0 h) was 0 ng/mL, the “Metformin base plasma concentration, Rat3” value ([9]; Time 0 h) was 0 ng/mL and the “Metformin base plasma concentration, Average” value ([9]; Time 2 min) was 2483.3 ng/mL. For the same compound, the “Metformin base plasma concentration, Rat1” value ([9]; Time 2 min) was 1430 ng/mL, the “Metformin base plasma concentration, Rat2” value ([9]; Time 2 min) was 2370 ng/mL and the “Metformin base plasma concentration, Rat3” value ([9]; Time 2 min) was 3650 ng/mL. The “Metformin base plasma concentration, Average” value ([9]; Time 0.5 h) was 229.2 ng/mL, the “Metformin base plasma concentration, Rat1” value ([9]; Time 0.5 h) was 262 ng/mL and the “Metformin base plasma concentration, Rat2” value ([9]; Time 0.5 h) was 331 ng/mL. For the same compound, the “Metformin base plasma concentration, Rat3” value ([9]; Time 0.5 h) was 94.7 ng/mL, the “Metformin base plasma concentration, Average” value ([9]; Time 1 h) was 30.4 ng/mL and the “Metformin base plasma concentration, Rat3” value ([9]; Time 1 h) was 25.2 ng/mL. For the same compound, the “Metformin base plasma concentration, Average” value ([9]; Time 1.5 h) was 22.1 ng/mL, the “Metformin base plasma concentration, Rat1” value ([9]; Time 1.5 h) was 0 ng/mL and the “Metformin base plasma concentration, Rat2” value ([9]; Time 1.5 h) was 66.3 ng/mL. For the same compound, the “Metformin base plasma concentration, Rat3” value ([9]; Time 1.5 h) was 0 ng/mL, the “Metformin base plasma concentration, Average” value ([9]; Time 2 h) was 0.0 ng/mL and the “Metformin base plasma concentration, Rat2” value ([9]; Time 2 h) was 0 ng/mL. For the same compound, the “Metformin base plasma concentration, Rat3” value ([9]; Time 2 h) was 0 ng/mL, the “Metformin base plasma concentration, Average” value ([9]; Time 3 h) was 0.0 ng/mL and the “Metformin base plasma concentration, Rat2” value ([9]; Time 3 h) was 0 ng/mL. For the same compound, the “Metformin base plasma concentration, Rat3” value ([9]; Time 3 h) was 0 ng/mL, the “Area Under the Curve (0-4 hrs, based on 1 mg base/rat)” value ([9]; i.v.) was 692.5 ng · h/mL-mg and the “Area Under the Curve (0-4 hrs, based on 1 mg base/rat)” value [2] was 29.2 ng · h/mL-mg.
